Experimental data published in US8759261B2, “Method and composition for enhanced hydrocarbons recovery” (Shell Oil Company, priority 2008, dated 2014).

Test: Solvent addition to improve aqueous solubility of IOS blend in seawater brine
Format: physicochemical
Protocol: The first attempt to improve the aqueous solubility of these blends was to use small amounts of solvents added to an IOS blend and seawater brine. One percent solvent was added to 3.2% brine solutions (see Table 1 for brine composition) containing a 0.2% blend of 78% IOS 2024 and 22% IOS 2428. This particular surfactant blend had been identified for minimizing the oil-water interfacial tension between the crude oil and brine representative of a North Sea reservoir. Additions of 1% hexylene glycol, 1-hexanol, polyethylene glycol (mw=400) and sodium xylene sulfonate were studied.
A small amount of alcohol ethoxylate (8% relative to the IOS) was added to a second sample of sodium xylene sulfonate.

Substance	solubilizing of the solid in the IOS blend	remaining precipitate after addition of nonionic (second sample with 1% sodium xylene sulfonate plus alcohol ethoxylate (8% relative to the IOS), 3.2% brine, 0.2% IOS blend)
polyethylene glycol (mw=400)	solubilizing most but not all of the solid	–
sodium xylene sulfonate	–	eliminated the rest of the precipitate
